Experimental data taken from patent US9657080B2, “Methods for treating diseases with peptides that inhibit IGF-1” (Universite Pierre et Marie Curie (Paris 6), priority 2009, dated 2017).
Where no end group is shown, it is not given here.

Tested on: female rats
Assay: Subcutaneous administration to female rats: GH effects and anti-peptide antibody
Format: in vivo

“Ac-GTSDRVYEKLAGSKNFFWKTFTSS [P7, Acetyl-GTSDRVYEKLAGSKNFFWKTFTSS]” was tested, and the anti-peptide antibody induction was “without inducing, nevertheless, anti-peptide antibody”.
